US11479561B2, “Tetrahydroisoquinoline derivatives” (Cytokinetics, Incorporated, priority 2016, dated 2022)

These compounds were tested on rabbit skeletal myofibrils (approximately 90% fast fibers) (assay: Activation of fast skeletal myofibrils (PUMA coupled-enzyme ATPase assay)). Conditions: concentration at which the compound increased the enzymatic activity by 40%; calcium level pCa25.
Assay type: biochemical
Experimental: Preparation of fast skeletal myofibrils: Rabbit skeletal myofibrils were prepared based upon the method of Herrmann et al. (Biochem. 32(28):7255-7263(1993). Myofibrils were prepared from rabbit psoas muscle purchased from Pel-Freez Biologicals (Arkansas) within 2 days of ordering, stored on ice. Minced muscle was homogenized in 10 volumes of ice-cold “standard” buffer (50 mM Tris, pH 7.4, 0.1 M KOAc, 5 mM KCl, 2 mM dithiothreitol (DTT), 0.2 mM phenylmethylsulfonyl fluoride (PMSF), 10 μM leupeptin, 5 μM pepstatin, and 0.5 mM sodium azide) containing 5 mM ethylenediaminetetraacetic acid (EDTA) and 0.5% Triton X-100 using an Omni-Macro homogenizer. Myofibrils were recovered by low speed centrifugation (3000 rpm for 10 minutes) and washed 2 times in the Triton X-100 containing buffer to ensure removal of cellular membrane. Following the Triton washes, myofibrils were washed 3 times in “standard” buffer containing 2 mM magnesium acetate. A final wash in assay buffer (12 mM piperazine-1,4-bis(2-ethanesulfonic acid) (PIPES), pH 6.8, 60 mM KCl, 1 mM DTT) was performed and brought to 10% sucrose for flash freezing in liquid nitrogen and storage at −80° C.
Activation of Fast Skeletal Myofibrils: Fast fiber activators were identified by Measuring the enzymatic activity of muscle myofibril preparations using the proprietary PUMA (trademark) (see, e.g., U.S. Pat. Nos. 6,410,254, 6,743,599, 7,202,051, and 7,378,254) assay system. Myofibril preparations consisted of rabbit skeletal muscle (approximately 90% fast fibers) that had been mechanically homogenized and washed with a detergent (Triton X-100) to remove cellular membranes. This preparation retained all of the sarcomeric components in a native conformation and the enzymatic activity was still regulated by calcium. Compounds were tested using a myofibril suspension and a level of calcium sufficient to increase enzymatic activity of the myofibrils to 25% of their maximal rate (termed pCa25). Enzymatic activity was tracked via a pyruvate kinase and lactate dehydrogenase-coupled enzyme system. This assay regenerates myosin-produced ADP into ATP by oxidizing NADH, producing an absorbance change at 340 nm. The buffering system was 12 mM PIPES, 2 mM MgCl2, 1 mM DTT at pH 6.8 (PM12 buffer).

| AC1.4 [µM] | Structure (SMILES) |
| --- | --- |
| 1.730 | CC1(C)C(=O)NC2(COC2)c2ccc(C(F)F)nc21 [compound 169] |
| 2.377 | CC1(C)C(=O)NC2(COC2)c2ccc(C#N)nc21 [compound 142] |
| 0.283 | CCC1(C)C(=O)NC2(COC2)c2ccc(OC(F)F)nc21 (stereo not drawn) [compound 146] |
| 0.051 | CCC1(CC)C(=O)NC2(COC2)c2ccc(Cl)cc21 [compound 43] |
| 1.202 | CCC1(CCO)C(=O)NC2(COC2)c2ccc(C#N)cc21 (stereo not drawn) [compound 165] |
| 0.581 | CCC1(CC(F)F)C(=O)NC2(COC2)c2ccc(OC)nc21 (stereo not drawn) [compound 145] |
| 8.474 | CCC1(CCO)C(=O)NC2(COC2)c2ccc(C)nc21 (stereo not drawn) [compound 102] |
| 0.400 | Cc1ccc2c(n1)C(C)(CC(F)F)C(=O)NC21COC1 (stereo not drawn) [92b] |
| 0.203 | CCC1(CC(F)F)C(=O)NC2(COC2)c2ccc(C(F)F)nc21 (stereo not drawn) [compound 88] |
| 8.994 | C=Cc1cnc2c(n1)C(CC)(CC)C(=O)NC21COC1 [compound 94] |
| 4.313 | CCC1(CCO)C(=O)NC2(COC2)c2ccc(OC(F)F)nc21 (stereo not drawn) [compound 105] |
| 2.566 | CC1(C)C(=O)NC2(COC2)c2ccc(F)cc21 [compound 157] |
| 1.437 | CCC1(CCOC)C(=O)NC2(COC2)c2ccc(C#N)nc21 (stereo not drawn) [compound 112] |
| 2.555 | CC1(C)C(=O)NC2(COC2)c2ccc(Cl)nc21 [compound 90] |
| 0.830 | CCC1(CC)C(=O)NC2(COC2)c2ncc(Cl)nc21 [compound 68] |
| 0.381 | CCC1(CC)C(=O)NC(C)(C(F)F)c2ccc(C#N)cc21 (stereo not drawn) [compound 59] |
| 5.393 | CCC1(CCOC)C(=O)NC2(COC2)c2ccc(C)nc21 (stereo not drawn) [compound 96] |
| 0.474 | CCC1(CCO)C(=O)NC(C)(C)c2ccc(Br)cc21 (stereo not drawn) [compound 115] |
| 1.318 | Cc1ccc2c(n1)C(C)(CC(F)F)C(=O)NC21COC1 (stereo not drawn) [92a] |
| 2.830 | CCC1(CC)C(=O)NC2(COC2)c2ccc(COC(F)F)nc21 [compound 143, 2-[(difluoromethoxy)methyl]-8,8-diethyl-6H-spiro[1,6-naphthyridine-5,3′-oxetan]-7(8H)-one] |
| 0.720 | Cc1ccc2c(n1)C(C)(CC(F)F)C(=O)NC21COC1 (stereo not drawn) [compound 95] |
| 1.987 | CCC1(CC)C(=O)NC2(COC2)c2ncc(C#N)cc21 [compound 161] |
| 2.346 | COc1ccc2c(n1)C(C)(C)C(=O)NC21COC1 [compound 147] |

The next lines start with the compound.

| Structure (SMILES) | AC1.4 [µM] |
| --- | --- |
| CCC1(CC)C(=O)NC(C)(C)c2cc(Br)c(C#N)cc21 [compound 116] | 0.274 |
| CC1(C)NC(=O)C(C)(Cn2cccn2)c2nc(C#N)ccc21 (stereo not drawn) [134b] | 4.986 |
| CCC1(CC)C(=O)NC(C)(C)c2cc(Cl)c(C#N)cc21 [compound 34, 7-chloro-4,4-diethyl-1,1-dimethyl-3-oxo-1,2,3,4-tetrahydroisoquinoline-6-carbonitrile] | 0.229 |
| CCC1(CC)C(=O)NC(C)(C)c2cc(C)c(C#N)cc21 [compound 97] | 0.332 |
| CC1(C)NC(=O)C2(CCOCC2)c2cc(C#N)ccc21 [compound 62] | >39.200 |
| CC1(C)NC(=O)C(C)(Cn2cccn2)c2nc(C#N)ccc21 (stereo not drawn) [134a] | 0.626 |
| CCC1(Cc2ccccc2Cl)C(=O)NC(C)(C)c2ccc(Br)cc21 (stereo not drawn) [compound 79] | <0.077 |
| COC(=O)N1CCC2(CC1)C(=O)NC(C)(C)c1ccc(Cl)cc12 [compound 156] | 5.881 |
| CC1(C)NC(=O)C(CCF)(CCF)c2cc(Br)ccc21 [compound 140] | 0.199 |
| C=CCC1(C)NC(=O)C(CC)(CC)c2nc(Cl)ccc21 (stereo not drawn) [compound 77] | 7.898 |
| CCC1(C)C(=O)NC(C)(C)c2ccc(Cl)nc21 (stereo not drawn) [compound 71] | 0.367 |
| CCC1(CC(=O)NCc2ccccc2)C(=O)NC(C)(C)c2ccc(Br)cc21 (stereo not drawn) [compound 139] | 30.805 |
| CC1(C)NC(=O)C(C)(C)c2nc(C#N)cnc21 [compound 153] | 1.590 |
| CCN(CC)C1C(=O)NC(C)(C)c2ccc(Br)cc21.Cl (stereo not drawn) [compound 65] | 1.052 |
| CC1(C)NC(=O)C2(CCN(S(C)(=O)=O)CC2)c2cc(Cl)ccc21 [compound 155, 6-chloro-1,1-dimethyl-1′-(methylsulfonyl)-1,2-dihydro-3H-spiro[isoquinoline-4,4′-piperidin]-3-one] | 8.340 |
| CCC1(CC)C(=O)NC(C)(C)c2ccc(C)cc21 [compound 46] | 0.106 |
| CCC1(CC(F)F)C(=O)NC(C)(C)c2ccc(Br)cc21 (stereo not drawn) [compound 83] | <0.077 |
| CCC1(CCF)C(=O)NC(C)(C)c2ccc(Br)cc21 (stereo not drawn) [compound 81] | 0.098 |
| CCC1(CC)C(=O)NC(C)(C)c2ccc(Cl)c(F)c21 [compound 141] | <0.077 |
| CC1(C)NC(=O)C(c2ccccc2)c2ccccc21 (stereo not drawn) [compound 138] | 7.955 |
| CC1(Cn2cccn2)C(=O)NC2(COC2)c2ccc(Cl)cc21 (stereo not drawn) [compound 75] | 1.174 |
| C[C@@H](O)CC1(C)C(=O)NC2(COC2)c2ccc(Cl)cc21 (mixture of isomers) [167a, rac-(4R)-6-chloro-4-[(2R)-2-hydroxypropyl]-4-methyl-2H-spiro[isoquinoline-1,3′-oxetan]-3(4H)-one] | 3.293 |
| C#CCC1(C)C(=O)NC(C)(C)c2ccc(C#N)nc21 (stereo not drawn) [compound 111] | 0.321 |

| Structure (SMILES) | AC1.4 [µM] |
| --- | --- |
| CN(c1ccccc1)C1C(=O)NC(C)(C)c2ccc(Br)cc21.Cl (stereo not drawn) [compound 66] | 2.502 |
| CC1(C)NC(=O)C2(CCOCC2)c2cc(Br)ccc21 [compound 44] | 5.982 |
| CC1(C)NC(=O)C(C)(C)c2cc(C#N)cnc21 [compound 58] | 5.040 |
| CCC1(CC)C(=O)NC(C)(C)c2c(OC)cc(OC)cc21 [compound 50] | 0.763 |
| CCC1(CC)C(=O)NC(C)(C)c2ccc(Cl)nc21 [compound 84] | 0.401 |
| CC1(C)NC(=O)C(C)(Cc2cn[nH]c2)c2nc(C#N)ccc21 (stereo not drawn) [compound 110] | 3.478 |
| C=CCC1(C)C(=O)NC(C)(C)c2ccc(C#N)nc21 (stereo not drawn) [compound 60] | 0.252 |
| CC1(C)NC(=O)C(C)(Cn2cccn2)c2nc(C#N)ccc21 (stereo not drawn) [compound 107] | 1.080 |
| CCC1(Cc2cccc(Cl)c2)C(=O)NC(C)(C)c2ccc(Br)cc21 (stereo not drawn) [compound 80] | 0.112 |
| CCC1(CC(=O)O)C(=O)NC(C)(C)c2ccc(Br)cc21 (stereo not drawn) [compound 91] | 20.240 |
| CCC1(CC)C(=O)NC(C)(C)c2ccc(Cl)cc21 [compound 48] | <0.077 |
| CC1(C)NC(=O)C(C)(C)c2cc(Br)ccc21 [compound 51] | 0.093 |
| CC(C)(O)CC1(C)C(=O)NC2(COC2)c2ccc(Cl)cc21 (stereo not drawn) [compound 137, 6-chloro-4-(2-hydroxy-2-methylpropyl)-4-methyl-2H-spiro[isoquinoline-1,3′-oxetan]-3(4H)-one] | 2.365 |
| C[C@H](O)CC1(C)C(=O)NC2(COC2)c2ccc(Cl)cc21 (mixture of isomers) [167b, rac-(4R)-6-chloro-4-[(2S)-2-hydroxypropyl]-4-methyl-2H-spiro[isoquinoline-1,3′-oxetan]-3(4H)-one] | 0.869 |
| CCC1(CC)C(=O)NC(C)(C)c2cc(C3CC3)c(C#N)cc21 [compound 98] | 2.085 |
| CC1(C)NC(=O)C(C)(CCO)c2cc(Cl)cnc21 (stereo not drawn) [compound 159] | 11.374 |
| CCC1C(=O)NC(C)(C)c2ccc(Br)cc21 (stereo not drawn) [compound 53] | 0.711 |
| CCC1(CCCO)C(=O)NC(C)(C)c2ccc(Br)cc21 (stereo not drawn) [compound 54] | 0.596 |
| CCC1(CC)C(=O)NC(C)(C)c2ncc(Cl)nc21 [compound 69] | 0.485 |
| C=CCC1(C)C(=O)NC(C)(C)c2ccc(Cl)nc21 (stereo not drawn) [compound 76] | 0.223 |
| CCC1(CC)C(=O)NC(C)(C)c2c(C#N)cccc21 [compound 63] | 3.707 |
| CCC1(Cc2ccc(Cl)cc2)C(=O)NC(C)(C)c2ccc(Br)cc21 (stereo not drawn) [compound 82] | 0.084 |
| CC1(C)NC(=O)C(C)(Cn2cccn2)c2nc(Cl)ccc21 (stereo not drawn) [compound 70] | 0.522 |
